Test results as given in patent US8946203B2, “Benzodioxane inhibitors of leukotriene production” (Boehringer Ingelheim International GmbH, priority 2012, dated 2015).
Like-named read-outs stand apart in the source and are kept apart here.

Assays:
[1] = target: T1, human LTA4 hydrolase (Homo sapiens, UniProt P09960); test: LTA4H Enzyme assay (cleavage of Arg-AMC, fluorescence); type: biochemical
T1 sequence (P09960 1-611): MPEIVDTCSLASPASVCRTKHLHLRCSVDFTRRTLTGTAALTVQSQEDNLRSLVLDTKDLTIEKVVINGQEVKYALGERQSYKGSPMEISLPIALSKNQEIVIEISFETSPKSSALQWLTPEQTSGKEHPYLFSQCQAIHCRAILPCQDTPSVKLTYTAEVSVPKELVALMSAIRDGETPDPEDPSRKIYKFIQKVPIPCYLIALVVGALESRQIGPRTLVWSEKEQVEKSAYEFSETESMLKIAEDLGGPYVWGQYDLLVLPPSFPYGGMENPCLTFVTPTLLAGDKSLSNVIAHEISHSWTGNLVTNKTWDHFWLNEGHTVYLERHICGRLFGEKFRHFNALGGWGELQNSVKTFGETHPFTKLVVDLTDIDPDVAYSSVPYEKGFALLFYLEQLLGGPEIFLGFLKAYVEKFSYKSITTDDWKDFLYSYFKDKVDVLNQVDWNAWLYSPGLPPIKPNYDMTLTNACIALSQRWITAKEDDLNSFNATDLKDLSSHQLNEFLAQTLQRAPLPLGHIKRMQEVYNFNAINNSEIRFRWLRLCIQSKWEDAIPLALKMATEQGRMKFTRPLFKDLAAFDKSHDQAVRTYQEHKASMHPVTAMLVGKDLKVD
In short: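 Peptidase activity of human LTA4H (1 nM final) on Arg-AMC (50 μM final), with compound, 1 h at room temperature. Buffer: 50 mM Tris-HCl pH 7.5, 100 mM KCl, 0.5% BSA.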

[2] = tested on: synthesis of LTB4 in human whole blood; test: human whole blood (HWB) assay, LTB4 production inhibition after calcimycin stimulation; type: cell-based; settings: heparinized human whole blood, calcimycin 20 μM, plasma LTB4 by HTRF
Procedure: The compounds of the invention are additionally tested in a human whole blood (HWB) assay to determine their ability to inhibit the synthesis of LTB4 in a cellular system. Compounds are combined with heparinized human whole blood and incubated for 15 minutes at 37° C. Calcimycin (20 μM final, prepared in phosphate-buffered saline, pH 7.4) is then added and the mixture is incubated for another 30 minutes at 37° C. The samples are centrifuged for 5 min at low speed (1500×g) and the plasma layer is removed. Plasma LTB4 concentrations are then measured using an antibody-based homogenous time-resolved fluorescence method (CisBio, Bedford, Mass.). In general, the preferred potency range (IC50) of compounds in the HWB assay is between 10 nM to 10 μM, the more preferred potency range is 10 nM to 1 μM, and the most preferred potency range is 10 nM to 100 nM.

[3] = LTA4H Enzyme 1 nM, Arg-AMC substrate 50 μM, room temperature 1 h, fluorescence, read-out: IC50 values of LTA4H Enzyme assay

With Nc1nc2c(s1)CN(Cc1ccc([C@H]3COc4cccnc4O3)cc1)CC2 [Example 258, 5-[(S)-4-(2,3-Dihydro-[1,4]dioxino[2,3-b]pyridin-3-yl)-benzyl]-4,5,6,7-tetrahydro-thiazolo[5,4-c]pyridin-2-ylamine] the IC50 [1, 3] was 0.37 nM and the IC50 [2] was 210 nM.

With CN(Cc1ccc([C@H]2COc3ccccc3O2)cc1)C1CCCCC1 [Example 67, N-{4-[(2S)-2,3-dihydro-1,4-benzodioxin-2-yl]benzyl}-N-methylcyclohexanamine] the IC50 [1, 3] was 0.61 nM and the IC50 [2] was 346 nM.

Work on O=C(O)C1CCC(C2CCN(Cc3ccc([C@H]4COc5cccnc5O4)cc3)CC2)CC1 (stereo partly drawn) [Example 265, 4-{1-[(S)-4-(2,3-Dihydro-[1,4]dioxino[2,3-b]pyridin-3-yl)-benzyl]-piperidin-4-yl}-cyclohexanecarboxylic acid] yielded an IC50 [1, 3] of 0.16 nM and an IC50 [2] of 150 nM.

CCN(CC)Cc1ccc([C@H]2COc3cccnc3O2)cc1 [Example 141, N-{4-[(3S)-2,3-dihydro[1,4]dioxino[2,3-b]pyridin-3-yl]benzyl}-N-ethylethanamine] gave an IC50 [1, 3] of 0.26 nM and an IC50 [2] of 33 nM.

In the case of N#CCN1CCN(Cc2ccc([C@H]3COc4cccnc4O3)cc2)CC1 [Example 284, {4-[(S)-4-(2,3-Dihydro-[1,4]dioxino[2,3-b]pyridin-3-yl)-benzyl]-piperazin-1-yl}-acetonitrile], the IC50 [1, 3] is reported as 3.9 nM and the IC50 [2] is reported as 290 nM.

O=C(NC[C@@H]1CCCO1)C1CCN(Cc2ccc([C@H]3COc4cccnc4O3)cc2)CC1 [Example 287, 1-[(S)-4-(2,3-Dihydro-[1,4]dioxino[2,3-b]pyridin-3-yl)-benzyl]-piperidine-4-carboxylic acid [(S)-1-(tetrahydro-furan-2-yl)methyl]-amide] showed an IC50 [1, 3] of 0.19 nM and an IC50 [2] of 55 nM.

For c1cnc2c(c1)OCC(c1ccc(CN3CCOCC3)cc1)O2 (racemic) [Example 18, 3-[4-(morpholin-4-ylmethyl)phenyl]-2,3-dihydro[1,4]dioxino[2,3-b]pyridine], the IC50 [1, 3] was 1.14 nM and the IC50 [2] was 176 nM.

Work on O=C1NCCC12CCN(Cc1ccc([C@H]3COc4cccnc4O3)cc1)CC2 [Example 125, 8-[(S)-4-(2,3-Dihydro-[1,4]dioxino[2,3-b]pyridin-3-yl)-benzyl]-2,8-diaza-spiro[4.5]decan-1-one] yielded an IC50 [1, 3] of 0.16 nM and an IC50 [2] of 39 nM.

CC(=O)NCCC(=O)N1CCN(Cc2ccc([C@H]3COc4cccnc4O3)cc2)CC1 [Example 288, N-[3-[4-[[4-[(3S)-2,3-dihydro-[1,4]dioxino[2,3-b]pyridin-3-yl]phenyl]methyl]piperazin-1-yl]-3-oxo-propyl]acetamide] showed an IC50 [1, 3] of 0.88 nM and an IC50 [2] of 150 nM.

COC1CCCN(Cc2ccc([C@H]3COc4cccnc4O3)cc2)C1 (stereo partly drawn) [Example 158, (3S)-3-{4-[(3-methoxypiperidin-1-yl)methyl]phenyl}-2,3-dihydro[1,4]dioxino[2,3-b]pyridine] showed an IC50 [1, 3] of 0.13 nM and an IC50 [2] of 28 nM.

CS(=O)(=O)NC1CCN(Cc2ccc([C@H]3COc4cccnc4O3)cc2)CC1 [Example 190, N-(1-{4-[(3S)-2,3-dihydro[1,4]dioxino[2,3-b]pyridin-3-yl]benzyl}piperidin-4-yl)methanesulfonamide] showed an IC50 [1, 3] of 0.09 nM and an IC50 [2] of 26 nM.

For O=C(CO)N1CCN(Cc2ccc([C@H]3COc4cccnc4O3)cc2)CC1 [Example 253, 1-{4-[(S)-4-(2,3-Dihydro-[1,4]dioxino[2,3-b]pyridin-3-yl)-benzyl]-piperazin-1-yl}-2-hydroxy-ethanone], the IC50 [1, 3] was 0.7 nM and the IC50 [2] was 110 nM.

Work on c1ccc2c(c1)OCC(c1ccc(CN3CCCC3)cc1)O2 (racemic) [Example 1, 1-[4-(2,3-dihydro-1,4-benzodioxin-2-yl)benzyl]pyrrolidine] yielded an IC50 [1, 3] of 0.38 nM and an IC50 [2] of 179 nM.

c1cnc2c(c1)OC[C@H](c1ccc(CN3CCOCC3)cc1)O2 [Example 204, (S)-3-(4-Morpholin-4-ylmethyl-phenyl)-2,3-dihydro-[1,4]dioxino[2,3-b]pyridine] was tested, and the IC50 [1, 3] was 0.15 nM and the IC50 [2] was 95 nM.

O=C1OCCCN1C1CCN(Cc2ccc([C@H]3COc4cccnc4O3)cc2)CC1 [Example 291, 3-{1-[(S)-4-(2,3-Dihydro-[1,4]dioxino[2,3-b]pyridin-3-yl)-benzyl]-piperidin-4-yl}-[1,3]oxazinan-2-one] showed an IC50 [1, 3] of 0.19 nM and an IC50 [2] of 56 nM.

CNC(=O)C1CCN(Cc2ccc(C3COc4ccccc4O3)cc2)CC1 (racemic) [Example 25, 1-[4-(2,3-Dihydro-benzo[1,4]dioxin-2-yl)-benzyl]-piperidine-4-carboxylic acid methylamide] gave an IC50 [1, 3] of 0.76 nM and an IC50 [2] of 294 nM.

CNC(=O)c1nnc2n1CCN(Cc1ccc([C@H]3COc4cccnc4O3)cc1)C2 [Example 242, 7-[(S)-4-(2,3-dihydro-[1,4]dioxino[2,3-b]pyridin-3-yl)-benzyl]-5,6,7,8-tetrahydro-[1,2,4]triazolo[4,3-a]pyrazine-3-carboxylic acid methylamide] was tested, and the IC50 [1, 3] was 0.6 nM and the IC50 [2] was 170 nM.

For NC(=O)NC1CCN(Cc2ccc([C@H]3COc4ccccc4O3)cc2)CC1 [Example 175, 1-(1-{4-[(2S)-2,3-dihydro-1,4-benzodioxin-2-yl]benzyl}piperidin-4-yl)urea], the IC50 [1, 3] was 0.22 nM and the IC50 [2] was 73 nM.

In the case of CN(CCc1ccccn1)Cc1ccc([C@H]2COc3cccnc3O2)cc1 [Example 138, N-{4-[(3S)-2,3-dihydro[1,4]dioxino[2,3-b]pyridin-3-yl]benzyl}-N-methyl-2-(pyridin-2-yl)ethanamine], the IC50 [1, 3] is reported as 0.18 nM and the IC50 [2] is reported as 76 nM.

Molecule NC(=O)N1CC2(CCN(Cc3ccc([C@H]4COc5cccnc5O4)cc3)CC2)c2ccccc21 [Example 282] has an IC50 [1] of 0.17 nM and an IC50 [2] of 61 nM.

O=C(O)CCCC1CCN(Cc2ccc(C3COc4ccccc4O3)cc2)CC1 (racemic) [Example 26, 4-{1-[4-(2,3-dihydro-1,4-benzodioxin-2-yl)benzyl]piperidin-4-yl}butanoic acid] gave an IC50 [1, 3] of 0.43 nM and an IC50 [2] of 308 nM.

Molecule CCN(C)Cc1ccc([C@H]2COc3cccnc3O2)cc1 [Example 140, N-{4-[(3S)-2,3-dihydro[1,4]dioxino[2,3-b]pyridin-3-yl]benzyl}-N-methylethanamine] has an IC50 [1, 3] of 0.38 nM and an IC50 [2] of 33 nM.

O=C(O)C1CCN(Cc2ccc([C@H]3COc4ccccc4O3)cc2)C1 (stereo partly drawn) [Example 61, 1-{4-[(2S)-2,3-dihydro-1,4-benzodioxin-2-yl]benzyl}pyrrolidine-3-carboxylic acid] gave an IC50 [1, 3] of 0.6 nM and an IC50 [2] of 250 nM.

For O=C1CCCN1CC1CCN(Cc2ccc([C@H]3COc4ccccc4O3)cc2)CC1 [Example 99, 1-[(1-{4-[(2S)-2,3-dihydro-1,4-benzodioxin-2-yl]benzyl}piperidin-4-yl)methyl]pyrrolidin-2-one], the IC50 [1, 3] was 0.37 nM and the IC50 [2] was 95 nM.

In the case of NC(=O)N[C@@H]1C[C@H]2CC[C@@H](C1)N2Cc1ccc([C@H]2COc3cccnc3O2)cc1 [Example 273, {(exo)-8-[(S)-4-(2,3-Dihydro-[1,4]dioxino[2,3-b]pyridin-3-yl)-benzyl]-8-aza-bicyclo[3.2.1]oct-3-yl}-urea], the IC50 [1] is reported as 0.16 nM and the IC50 [2] is reported as 110 nM.

In the case of O=C(O)C[C@@H]1CCCN(Cc2ccc([C@H]3COc4ccccc4O3)cc2)C1 [Example 183, [(3S)-1-{4-[(2S)-2,3-dihydro-1,4-benzodioxin-2-yl]benzyl}piperidin-3-yl]acetic acid], the IC50 [1, 3] is reported as 0.48 nM and the IC50 [2] is reported as 151 nM.

For NC(=O)NC1CCN(Cc2ccc(C3COc4ccccc4O3)cc2)CC1 (racemic) [Example 53, 1-{1-[4-(2,3-dihydro-1,4-benzodioxin-2-yl)benzyl]piperidin-4-yl}urea], the IC50 [1, 3] was 0.42 nM and the IC50 [2] was 155 nM.

O=C(O)[C@H]1[C@@H]2CN(Cc3ccc([C@H]4COc5ccccc5O4)cc3)C[C@@H]21 [Example 267, [(1α,5α,6α)-3-[(S)-4-(2,3-Dihydro-benzo[1,4]dioxin-2-yl)-benzyl]-3-aza-bicyclo[3.1.0]hexane]-6-carboxylic acid] was tested, and the IC50 [1, 3] was 0.3 nM and the IC50 [2] was 73 nM.

NC(=O)c1nnc2n1CCN(Cc1ccc([C@H]3COc4cccnc4O3)cc1)CC2 [Example 245, 6-[(S)-4-(2,3-dihydro-[1,4]dioxino[2,3-b]pyridin-3-yl)-benzyl]-5,6,7,8-tetrahydro-4H-1,2,3a,6-tetraaza-azulene-3-carboxylic acid amide] was tested, and the IC50 [1, 3] was 0.32 nM and the IC50 [2] was 130 nM.
